This is an account of results in patent US20240376122A1, “SMALL MOLECULE COMPOUNDS” (APERTOR PHARMACEUTICALS, INC., priority 2021, published 2024).

Data set [1] deals with Saccharomyces cerevisiae BY4742. The data set is described as follows: Anti-yeast activity assay (minimum inhibitory concentration). The format is cell-based. The conditions noted are these: YPD media, 96-well plates, 30° C. for 16 hours without shaking, lowest concentration with no obvious culture growth, triplicate, read-out: MIC against Saccharomyces cerevisiae BY4742. As to the method:
A single colony of Saccharomyces cerevisiae BY4742 was inoculated into 2 mL YPD media in a 5 mL falcon tube to grow overnight at 30° C. The overnight culture was inoculated into 5 mL YPD media in a glass tube at OD600-0.1, and the new culture was grown at 30° C. until OD600 reached 0.5. The culture was then diluted to OD600-0.01 and aliquoted into 96-well plates at 100 μL per well. The compound was dissolved in ethanol at 75 μM. Three-fold serial dilutions were conducted for the Compound 10 times using ethanol, respectively. 4 μL of each concentration compound solution was added and mixed with 384 μL YPD media. 100 μL of the YPD media solutions were mixed with the Saccharomyces cerevisiae cultures in 96-well plates by pipette, respectively. The plates were incubated at 30° C. for 16 hours without shaking. The lowest Compound concentrations in wells that have no obvious culture growth were defined as the minimum inhibitory concentrations (MICs). The assays were conducted in triplicate.

For data set [2] the following is noted: observed in humans; cited from earlier work.

For `CO[C@@H]1/C(C)=C/C=C/C=C/[C@@H](C)C[C@@H](C)C(=O)[C@H](OC)[C@H](O)/C(C)=C/[C@@H](C)C(=O)C[C@@H]([C@H](C)C[C@@H]2CC[C@@H](O)[C@H](OC)C2)OC(=O)[C@@H]2CCCCN2C(=O)C(=O)[C@]2(O)O[C@@H](CC[C@H]2C)[C@H]1C` (single isomer, unassigned) [Compound 15], in data set [1], the MIC (as a rule, the lowest concentration found to suppress growth) was less than 0.0556 µM.

For the compound `CO[C@H]1C[C@@H]2CC[C@@H](C)[C@@](O)(O2)C(=O)C(=O)N2CCCC[C@H]2C(=O)O[C@H]([C@H](C)C[C@@H]2CC[C@@H](O)[C@H](OC)C2)CC(=O)[C@H](C)/C=C(\C)[C@@H](O)[C@@H](OC)C(=O)[C@H](C)C[C@H](C)/C=C/C=C/C=C/1C` [rapamycin], the terminal half-life in data set [2] is 24 to 48 h.
